Measurements taken from publication PMC12434667 (Journal of Medicinal Chemistry, 2025).
“And” between values parts separate entries of the source, which are not always exact repeats. Equal values may be shown once.

How the values were obtained:
[1] = tested on: pRB S807/811; assay: 24-hr AlphaLISA of pRB inhibition in MKN1 cells; type: cell-based; settings: Homo sapiens, MKN-1, 24 h
[2] = Rat PK; type: in vivo; settings: plasma, po, 10 mg/kg
[3] = target: CDK6 (Homo sapiens, UniProt Q00534); assay: 24-hr western blot of CDK6 degradation in TOV21G cells; type: cell-based; settings: read-out: TOV21G CDK6 DC50
Sequence of CDK6 (Q00534 whole entry): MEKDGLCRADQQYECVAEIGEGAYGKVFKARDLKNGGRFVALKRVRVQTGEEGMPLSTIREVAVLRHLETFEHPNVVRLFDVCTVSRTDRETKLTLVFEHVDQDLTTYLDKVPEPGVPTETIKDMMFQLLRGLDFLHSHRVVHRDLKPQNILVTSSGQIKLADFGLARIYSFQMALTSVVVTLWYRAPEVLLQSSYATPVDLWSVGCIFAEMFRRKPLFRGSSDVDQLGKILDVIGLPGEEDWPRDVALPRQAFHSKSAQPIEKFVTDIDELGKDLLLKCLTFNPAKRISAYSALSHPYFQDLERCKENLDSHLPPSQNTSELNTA

[4] = Dog PK; type: in vivo
[5] = Plasma protein binding; type: in vitro ADME; settings: mouse
[6] = Plasma PK in HCC1569 xenograft model; type: in vivo; settings: mouse HCC1569 xenograft; for AUC0–24h free: mouse PPB 98.02%
[7] = tested on: pRB; assay: Tumor AlphaLISA; type: in vivo, mouse; settings: HCC1569 xenograft, sustained
[8] = Monkey PK; type: in vivo
[9] = tested on: HCC1569 tumor xenograft; assay: HCC1569 tumor xenograft efficacy; type: in vivo, mouse; settings: 28 days; for day 28 %dTV (mean ± SEM): HCC1569 xenograft mice
[10] = target: CDK9 (Homo sapiens, UniProt P50750); assay: 24-hr AlphaLISA of CDK9 degradation in TOV21G cells; type: cell-based
Sequence of CDK9 (P50750 whole entry): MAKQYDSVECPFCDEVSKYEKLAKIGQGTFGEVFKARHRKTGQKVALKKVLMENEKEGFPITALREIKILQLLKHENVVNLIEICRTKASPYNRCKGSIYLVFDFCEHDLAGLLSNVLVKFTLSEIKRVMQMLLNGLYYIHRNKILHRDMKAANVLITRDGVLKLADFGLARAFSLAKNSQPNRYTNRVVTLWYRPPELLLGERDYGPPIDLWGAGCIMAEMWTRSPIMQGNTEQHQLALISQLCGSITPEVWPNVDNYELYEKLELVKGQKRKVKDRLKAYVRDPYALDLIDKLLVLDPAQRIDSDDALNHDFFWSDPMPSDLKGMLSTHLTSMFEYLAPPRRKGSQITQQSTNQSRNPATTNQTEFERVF

[11] = target: CDK1 (Homo sapiens, UniProt P06493); assay: 24-hr AlphaLISA of CDK1 degradation in TOV21G cells; type: cell-based; settings: vs CDK2 degradation
Sequence of CDK1 (P06493 whole entry): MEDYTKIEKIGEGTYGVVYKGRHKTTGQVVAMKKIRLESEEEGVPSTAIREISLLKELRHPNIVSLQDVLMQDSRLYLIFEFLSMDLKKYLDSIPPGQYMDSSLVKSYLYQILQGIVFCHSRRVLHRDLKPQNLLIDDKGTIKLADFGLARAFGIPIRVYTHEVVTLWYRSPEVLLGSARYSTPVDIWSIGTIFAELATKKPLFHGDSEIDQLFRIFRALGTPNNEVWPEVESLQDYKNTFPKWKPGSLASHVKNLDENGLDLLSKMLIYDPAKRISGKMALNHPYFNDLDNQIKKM

[12] = target: CDK4 (Homo sapiens, UniProt P11802); assay: 24-hr western blot of CDK4 degradation in TOV21G cells; type: cell-based; settings: read-out: TOV21G CDK4 DC50
Sequence of CDK4 (P11802 whole entry): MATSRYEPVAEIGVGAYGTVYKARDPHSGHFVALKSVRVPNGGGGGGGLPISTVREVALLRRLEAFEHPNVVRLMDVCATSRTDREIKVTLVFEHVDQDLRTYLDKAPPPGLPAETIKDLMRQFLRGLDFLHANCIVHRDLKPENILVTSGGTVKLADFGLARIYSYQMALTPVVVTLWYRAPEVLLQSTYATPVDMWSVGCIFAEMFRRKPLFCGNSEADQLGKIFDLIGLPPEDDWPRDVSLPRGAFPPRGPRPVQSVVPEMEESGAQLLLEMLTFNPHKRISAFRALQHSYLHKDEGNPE

[13] = tested on: human PBMC cells; assay: Tandem mass tag deep proteome profiling; type: cell-based; settings: 800 nM, 8 h, over 8000 proteins

IC50 ([1]; read-out: MKN1 pRB IC50): 23 nM | IC90 ([1]; read-out: MKN1 pRB IC90): 110 nM | AUC(0-t) [2]: 3.63 µM·h | Cmax [2]: 261 nM | DC50 [3]: 1280 nM | dog F ([4]; IV 0.1 / PO 1 mg/kg, 1 mg/kg): 12% | Vd ([4]; plasma, iv, 0.1 mg/kg): 4.2 L/kg | clearance ([4]; plasma, iv, 0.1 mg/kg): 3.9 mL/min/kg | half-life ([4]; plasma, iv, 0.1 mg/kg): 864 min | AUC(0-t) ([4]; plasma, po, 1 mg/kg): 0.557 µM·h | Cmax ([4]; plasma, po, 1 mg/kg): 26 nM | fraction unbound at 30 min, 1 µM [5]: 0.0198 | AUC0–24h/D ([6]; PO 10 mg/kg BID × 3 days): 624 mg·h/mL | AUC0–24h/D ([6]; PO 25 mg/kg BID × 3 days): 709 mg·h/mL | AUC0–24h free ([6]; PO 25 mg/kg BID × 3 days): 14.2 ng·h/mL | AUC0–24h/D ([6]; PO 50 mg/kg BID × 3 days): 949 mg·h/mL | AUC0–24h free ([6]; PO 50 mg/kg BID × 3 days): 19.0 ng·h/mL | AUC0–24h/D ([6]; PO 50 mg/kg QD × 3 days): 1377 mg·h/mL | AUC0–24h free ([6]; PO 50 mg/kg QD × 3 days): 27.5 ng·h/mL | monkey F ([8]; IV 0.07 / PO 1 mg/kg, 1 mg/kg): 12% | Vd ([8]; plasma, iv, 0.07 mg/kg): 5.7 L/kg | clearance ([8]; plasma, iv, 0.07 mg/kg): 9.1 mL/min/kg | half-life ([8]; plasma, iv, 0.07 mg/kg): 516 min | AUC(0-t) ([8]; plasma, po, 1 mg/kg): 0.25 µM·h | Cmax ([8]; plasma, po, 1 mg/kg): 14 nM | DC50 ([10]; read-out: TOV21G CDK9 DC50, 24 h): > 10 µM | degradation selectivity over CDK9 ([10]; vs CDK2 degradation): > 500 fold | degradation selectivity over CDK1 [11]: > 100 fold | DC50 [12]: > 10 µM
Compound: C[C@]1(O)CCCN(c2nc(Nc3ccc(S(=O)(=O)N[C@@H]4CCN(CC5CCN(c6ccc(C7CCC(=O)NC7=O)cc6F)CC5)C[C@@H]4F)cc3F)ncc2C(F)(F)F)C1 (stereo partly drawn) [Compound 37, N-[(3S,4R)-1-[[1-[4-(2,6-Dioxo-3-piperidyl)-2-fluoro-phenyl]-4-piperidyl]methyl]-3-fluoro-4-piperidyl]-3-fluoro-4-[[4-[(3S)-3-hydroxy-3-methyl-1-piperidyl]-5-(trifluoromethyl)pyrimidin-2-yl]amino]benzenesulfonamide]
inhibition of pRB in tumor [7]: 90% and > 90% | antitumor activity ([9]; 25 mg/kg PO BID): stable disease (30 to −30% is stable disease (0% = Tumor Stasis)) | day 28 %dTV (mean ± SEM) ([9]; 25 mg/kg PO BID): –26 ± 9% | antitumor activity ([9]; 50 mg/kg PO BID): stable disease (30 to −30% is stable disease (0% = Tumor Stasis)) | day 28 %dTV (mean ± SEM) ([9]; 50 mg/kg PO BID): –24 ± 10% | antitumor activity ([9]; 50 mg/kg PO QD): stable disease (30 to −30% is stable disease (0% = Tumor Stasis)) | significantly downregulated proteins [13]: CDK2 as the only significantly downregulated protein
